From patent US7411002B2, “Polycationic sulfonamides and use thereof” (priority 2006, dated 2008)

Legend:
[1] = system: LPS-induced lethality in CF-1 mice; test: Mouse lethality assay (D-galactosamine-sensitized mice, supralethal LPS challenge); assay type: in vivo; settings: FIG. 9; for mice protected from LPS lethality: 200 μg/mouse compound i.p., supralethal 200 ng LPS challenge, lethality at 24 h
From the text: Compound MQTS 2358 represents spermine-sulfonamide Series A (SPM). Compound MQTS 2383 represents homologated spermine-sulfonamide Series B (HOMO-SPM). Compound MQTS 2389 represents branched homologated spermine-sulfonamide Series D (BRANCHED-HOMO-SPM). Also included in FIG. 9 are positive control compounds MQTS 3938 and MQTS 3942 (L-Lys(C18-alkyl)-spermine and D-Lys(C18-alkyl)-spermine, respectively) previously reported.^60 As shown in this figure, i.p. dosing with these compounds affords significant protection from super-lethal challenges with LPS in this model. Dosages of 200 μg/mouse) protected 5 out of 5 mice with all compounds except MQT 2389 which appears to have toxic effects above 50 μg/mouse dosages. Furthermore, treatment with lower dosages of these compounds also affords significant protection from the toxic effects of LPS.
Mouse lethality experiments: Female, outbred, 9- to 11-week-old CF-1 mice (Charles River, Wilmington, Mass.) weighing 22-28 g are used as described elsewhere.^71 Upon arrival, the mice are allowed to acclimatize for a week prior to experimentation, housed 5 per cage in a controlled environment at the AALAC-accredited University of Kansas Animal Care Facility, and allowed access to mouse chow and water ad libitum. The animals are sensitized to the lethal effects of LPS by D-galactosamine.^74-76 The lethal dose causing 100% mortality (LD100) dose of the batch of LPS used (E. coli 0111:B4 procured from Sigma) is first determined by administering D-galactosamine (800 mg/kg) and LPS (0, 10, 20, 50, 100, 200 ng/mouse) as a single injection intraperitoneally (i.p.) in freshly prepared saline to batches of five animals in a volume of 0.2 ml. […] In experiments designed to test dose-response effects of the polycationic sulfonamides in affording protection against LPS-induced lethality, mice received graded doses of compound diluted in saline, i.p., in one flank, immediately before a supralethal (200 ng) LPS challenge, which is administered as a separate i.p. injection into the other flank. In experiments in which the temporal window of protection is to be examined, a fixed dose of 200 μg/mouse of compound is administered at various times, before, or after supralethal (200 ng/mouse) LPS challenge. Lethality is determined at 24 h post LPS challenge.

[2] = system: LPS-induced NF-κB induction in human embryonic kidney 293 cells cotransfected with TLR4, CD14 and MD2; test: Inhibition of LPS induction of NF-κB (seAP reporter) in HEK 293 cells cotransfected with TLR4, CD14 and MD2; assay type: cell-based; settings: Homo sapiens, HEK293; inhibition of LPS-induced NF-κB induction, HEK 293 TLR4/CD14/MD2 reporter cells; read-out: NFκβ inhibition IC50 value
From the text: Assessment of Inhibition of Cytokine Induction (NF-κB): The inhibition of induction of NF-κB (a key transcripitional activator of the innate immune system, leading to uncontrolled cytokine release^72,73 which ultimately leads to multiple organ failure and the shock syndrome) is quantified using human embryonic kidney 293 cells cotransfected with TLR4 (LPS receptor), CD14 and MD2 (co-receptors), available from InvivoGen, Inc. (HEK-Bluetm, San Diego, Calif.), as per protocols provided by the vendor. Stable expression of secreted alkaline phosphatase (seAP) under control of NF-κB/AP-1 promoters is inducible by LPS, and extracellulare seAP in the supernatant is proportional to NF-κB induction. seAP is assayed spectrophotometrically using an alkaline phosphatase-specific chromogen at 620 nm using a rapid-throughput, automated protocol employing a Bio-Tek P2000 liquid handler. Results showing the ability of polycationic sulfonamide compounds to inhibit the induction of NF-κB by LPS are shown in Tables A-F.

[3] = Rapid-throughput BODIPY-TR cadaverine (BC) fluorescence displacement assay for binding affinity to LPS; settings: half-maximal effective displacement of BODIPY-TR cadaverine probe from LPS; 50 mM Tris buffer, pH 7.4; read-out: Binding affinity (BC displacement) ED50 value
Method: Rapid-throughput Fluorescence Displacement Assay for quantifying binding affinities to LPS. […] Polymyxin B (PMB), a peptide antibiotic known to bind and neutralize LPS^65 serves as the positive control and reference compound for every plate, enabling the quantitative assessment of repeatability and reproducibility (CV and Z′ factors) for the assay. Automated liquid handling is performed on a Precision 2000 automated microplate pipetting system, programmed using the Precision Power software, Bio-Tek Instruments Inc., VT, USA. Results are reported as half-maximal effective displacement of probe (ED50) (Tables A-F). In all experiments, Polymyxin B (PMB), a decapeptide antibiotic, known to bind and neutralize LPS,^66-69 is used as a reference compound.

[4] = system: LPS-induced nitric oxide production in murine macrophage J774A.1 cells; test: NO inhibition (Griess nitrite assay) in LPS-stimulated murine macrophage J774A.1 cells; assay type: cell-based; settings: Mus musculus, J774.A1, 10 ng/ml LPS, 16 h
Method: Assessment of neutralization of LPS toxicity: NO inhibition activity. Nitric oxide production is measured as total nitrite in murine macrophage J774A.1 cells using the Griess assay^70 as described previously.^71 J774A.1 cells are plated at ˜10^5/ml in a volume of 40 μl/well, in 384-well, flat-bottomed, cell culture treated microtiter plates and subsequently stimulated with 10 ng/ml lipopolysaccharide (LPS). Concurrent to LPS stimulation, serially diluted concentrations of test compounds are added to the cell medium and left to incubate for 16 h. Polymyxin B is used as reference compound in each plate. Positive-(LPS stimulation only) and negative-controls (J774A.1 medium only) are included in each experiment. Nitrite concentrations are measured by adding 40 μl of supernatant to equal volumes of Griess reagents (50 μl/well; 0.1% NED solution in ddH2O and 1% sulfanilamide, 5% phosphoric acid solution in ddH2O) and incubating for 15 minutes at room temperature in the dark. Absorbance at 535 nm is measured using a Molecular Devices Spectramax M2 multifunction plate reader (Sunnyvale, Calif.). Nitrite concentrations are interpolated from standard curves obtained from serially diluted sodium nitrite standards. IC50 values are determined for compounds that neutralize LPS inhibit NO production in a dose-dependent manner (Tables A-F). Results in this assay parallel those in the binding assay.

Row | Molecule | mice protected from LPS lethality [1] | IC50 [2] | dosage above which toxic effects appear ([1]; i.p. dosing in mouse lethality assay) | EC50 [3] | IC50 [4]
1 | L-Lys(C18-alkyl)-spermine [MQTS 3938, reference compound] | 5 out of 5 | – | – | – | –
2 | CCCCCCCCS(=O)(=O)NCCCN(CCCNCCCNCCCCNCCCN)CCCNS(=O)(=O)CCCCCCCC [MQTS 2389, N^1-Bis[N-octanylsulfonyl-3-aminopropyl]-1,18-diamino-5,9,14-triazaoctadecane] | – | 0.3 µM | above 50 μg/mouse | 2.62 µM | 0.32 µM
3 | D-Lys(C18-alkyl)-spermine [MQTS 3942, reference compound] | 5 out of 5 | – | – | – | –
4 | CCCCCCCCCCCCCCCCS(=O)(=O)NCCCNCCCCNCCCN [MQTS 2358] | 5 out of 5 | 0.28 µM | – | 3.87 µM | 0.45 µM
5 | CCCCCCCCCCCCCCCCS(=O)(=O)NCCCNCCCNCCCCNCCCN [MQTS 2383] | 5 out of 5 | 0.2 µM | – | 4.71 µM | 0.12 µM
